Each structure is given as a SMILES string. A value given as a limit tells only on which side of the number the result lay.

The IC50 is the concentration at which inhibition is half-maximal.

T1 sequence (P06756 31-889 limits assumed): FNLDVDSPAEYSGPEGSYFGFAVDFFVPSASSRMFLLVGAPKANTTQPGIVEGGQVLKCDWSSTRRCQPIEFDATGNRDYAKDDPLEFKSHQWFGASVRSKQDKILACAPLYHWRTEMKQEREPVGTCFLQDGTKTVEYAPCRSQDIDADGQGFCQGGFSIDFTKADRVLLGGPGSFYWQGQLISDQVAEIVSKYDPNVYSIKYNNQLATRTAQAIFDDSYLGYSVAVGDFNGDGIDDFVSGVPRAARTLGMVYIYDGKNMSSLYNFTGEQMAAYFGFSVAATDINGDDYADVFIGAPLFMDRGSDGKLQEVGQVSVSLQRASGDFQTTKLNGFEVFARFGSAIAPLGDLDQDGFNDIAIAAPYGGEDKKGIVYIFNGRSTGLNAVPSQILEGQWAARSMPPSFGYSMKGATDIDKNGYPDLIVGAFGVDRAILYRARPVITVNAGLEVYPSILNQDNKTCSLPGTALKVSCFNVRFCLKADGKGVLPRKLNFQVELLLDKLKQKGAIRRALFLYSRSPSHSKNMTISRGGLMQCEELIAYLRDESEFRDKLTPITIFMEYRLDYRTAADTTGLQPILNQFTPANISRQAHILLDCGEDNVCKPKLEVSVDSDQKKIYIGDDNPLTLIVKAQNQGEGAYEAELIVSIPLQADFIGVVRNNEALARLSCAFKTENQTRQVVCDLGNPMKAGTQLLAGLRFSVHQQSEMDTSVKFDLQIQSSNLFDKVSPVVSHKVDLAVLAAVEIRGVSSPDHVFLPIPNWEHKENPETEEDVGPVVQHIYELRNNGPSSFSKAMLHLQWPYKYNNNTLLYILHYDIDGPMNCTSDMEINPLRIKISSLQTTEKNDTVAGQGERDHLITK
T1 sequence (P06756 891-1048 limits assumed): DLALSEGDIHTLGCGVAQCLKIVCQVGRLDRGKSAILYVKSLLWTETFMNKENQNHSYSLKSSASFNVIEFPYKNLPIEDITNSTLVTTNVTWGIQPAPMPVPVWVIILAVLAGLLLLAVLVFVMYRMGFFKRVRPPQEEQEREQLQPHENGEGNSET
T1 sequence (G3HZ55 21-798): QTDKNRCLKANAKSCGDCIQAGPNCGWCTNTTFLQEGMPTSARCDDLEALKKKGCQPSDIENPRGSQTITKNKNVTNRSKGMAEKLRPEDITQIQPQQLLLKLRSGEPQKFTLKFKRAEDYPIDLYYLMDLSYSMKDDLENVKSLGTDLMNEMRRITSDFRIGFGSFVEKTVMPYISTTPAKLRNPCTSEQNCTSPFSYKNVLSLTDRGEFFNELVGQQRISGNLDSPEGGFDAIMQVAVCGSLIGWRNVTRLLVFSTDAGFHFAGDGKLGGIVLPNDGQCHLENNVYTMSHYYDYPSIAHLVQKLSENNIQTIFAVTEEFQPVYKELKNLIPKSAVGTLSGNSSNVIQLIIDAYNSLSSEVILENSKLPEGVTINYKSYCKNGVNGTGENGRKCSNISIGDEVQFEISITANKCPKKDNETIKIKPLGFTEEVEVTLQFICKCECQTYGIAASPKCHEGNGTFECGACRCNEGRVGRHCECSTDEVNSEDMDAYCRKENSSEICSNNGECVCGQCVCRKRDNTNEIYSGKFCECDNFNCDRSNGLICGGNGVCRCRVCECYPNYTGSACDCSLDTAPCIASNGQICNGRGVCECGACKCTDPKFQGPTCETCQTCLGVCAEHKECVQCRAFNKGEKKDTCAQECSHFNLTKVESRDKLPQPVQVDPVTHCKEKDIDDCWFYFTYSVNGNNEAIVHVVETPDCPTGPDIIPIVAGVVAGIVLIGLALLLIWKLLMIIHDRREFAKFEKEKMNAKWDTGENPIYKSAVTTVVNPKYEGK

The assay concerns the target T1, αvβ1 integrin (UniProt G3HZ55+P06756).
T1 construct: expressed in transfected cells; host or cells: CHO cells (elsewhere described as α5-deficient CHO) transfected with human αv
Nature of the assay: Cell Adhesion Assay (integrin-specific adhesion, αvβ1). In kind it is cell-based. To be noted: CHO cells transfected with human αv adhering to 0.3 μg/ml fibronectin; read-out: Cell Adhesion Assay IC50 range. How it is done: The effects of compounds on cell adhesion mediated by […], α8β1, αvβ1, αvβ3, αvβ5, αvβ6, and αvβ8 are measured using pairs of cell lines and ligands selected to isolate the effect of each individual integrin. For α5β1 we utilize the colon carcinoma cell line, SW480, plated on 0.3 μg/ml fibronectin, for α8β1, we utilize SW480 cells transfected with human α8 adhering to 1 μg/ml recombinant TGFβ1 LAP [5], for αvβ1 we use Chinese Hamster Ovary Cells (CHO cells) transfected with human αv adhering to 0.3 μg/ml fibronectin [6], for αvβ3 we use SW480 cells transfected with human β3, for αvβ5 we use wild type SW480 cells adhering to 0.1 μg/ml vitronectin. For αvβ6 we use SW480 cells transfected with human β6 adhering to 0.01 μg/ml recombinant human TGFβ1 LAP. For αvβ8 we use glioma cell line (SNB19) expressing β8 adhering to 1 μg/ml recombinant human TGFβ1 LAP.
(§1) The effects of the compound on cell adhesion mediated by αvβ1 integrin were measured using Chinese Hamster Ovary Cells (CHO cells) transfected with human αv adhering to 0.3 μg/ml fibronectin. In every case, we confirmed that adhesion could be inhibited by blocking antibodies to αv and β1. Cells were resuspended in DMEM for 30 min at 4° C. with 10-fold dilutions of the compound with a starting concentration of 10 μM. Each sample was then added to triplicate wells of a 96-well plate which had been coated overnight at 4° C. with the relevant ligand, washed, blocked by 1 hr incubation with 1% BSA, and washed again. Cells were allowed to attach for 30-60 min at 37° C. After incubation, non-adherent cells were removed by discarding the media and spinning the plate top-side down at 500 rpm for 5 minutes. Cells were then fixed and stained with 40 ul of 0.5% Crystal violet, 1% Formaldehyde, 20% Methanol for 30 minutes and lysed with 2% Trition-X. Absorbance was measured at 595 nm in a Microplate reader. For all assays, concentration-response curves were constructed by non-linear regression analysis and IC50 values using Graphpad PRISM (ver 6.0).
as §1, with “Integrin specific” for “effects of the compound on cell”, “assays” for “mediated by αvβ1 integrin”, “In every case, we confirmed that adhesion could be inhibited by blocking antibodies to αv and β1.” left out
Turning to `COc1cccc(OC)c1C(=O)N[C@@H](Cc1ccc(NC(=O)CCCNc2ccccn2)cc1)C(=O)O` [HIJ-886, (S)-2-(2,6-dimethoxybenzamido)-3-(4-(4-(pyridin-2-ylamino)butanamido)phenyl)propanoic acid], the IC50 is 100 to 10000 nM.
In the case of `CSc1ccccc1C(=O)N[C@@H](Cc1ccc(NC(=O)CCCNc2ccccn2)cc1)C(=O)O` [HIJ-891, (S)-2-(2-(methylthio)benzamido)-3-(4-(4-(pyridin-2-ylamino)butanamido)phenyl)propanoic acid], the half-inhibitory concentration (IC50) lay within 100 to 10000 nM.
In the case of `O=C(CCCNc1ccccn1)Nc1ccc(C[C@H](NC(=O)c2cccc(-c3ccccc3)c2)C(=O)O)cc1` [HIJ-892, (S)-2-([1,1′-biphenyl]-3-carboxamido)-3-(4-(4-(pyridin-2-ylamino)butanamido)phenyl)propanoic acid], the concentration for half-maximal inhibition (IC50) lay in the range of 100 to 10000 nM.
For `O=C(CCCNc1ccccn1)Nc1ccc(C[C@H](NC(=O)c2c(F)cccc2Br)C(=O)O)cc1` [HIJ-889, (S)-2-(2-bromo-6-fluorobenzamido)-3-(4-(4-(pyridin-2-ylamino)butanamido)phenyl)propanoic acid] the value was less than 100 nM.
Consider `N=C(N)NCCCc1coc(-c2ccc(C[C@H](NC(=O)c3c(Cl)cccc3Cl)C(=O)O)cc2)n1` [JM-185], for which the IC50 fell in the range of 100 to 10000 nM.
With `O=C(CCCCc1ccc2c(n1)NCCC2)Nc1ccc(C[C@H](NC(=O)c2c(Cl)cccc2Cl)C(=O)O)cc1` [YT-115], the IC50 was 100 to 10000 nM.
Next, `O=C(N[C@@H](Cc1ccc(-n2cc(CNc3ccccn3)nn2)cc1)C(=O)O)c1c(Cl)cccc1Cl` [JM-230]: 100 to 10000 nM.
Regarding `N=C(N)NCCCn1cc(-c2ccc(C[C@H](NC(=O)c3c(Cl)cccc3Cl)C(=O)O)cc2)nn1` [JM-141], the half-inhibitory concentration (IC50) is less than 100 nM.
Regarding `O=C(CCCCNc1ccccn1)Nc1ccc(C[C@H](NC(=O)c2c(Cl)cccc2Cl)C(=O)O)cc1` [YT-43], the IC50 lay in the range of 100 to 10000 nM.
For the molecule `O=C(CCCCNC1=NCCN1)Nc1ccc(C[C@H](NC(=O)c2c(Cl)cccc2Cl)C(=O)O)cc1` [JM-61], the IC50 was 100 to 10000 nM.
In the case of `Cc1ccnc(NCCCC(=O)Nc2ccc(C[C@H](NC(=O)c3c(Cl)cccc3Cl)C(=O)O)cc2)c1` [HU-899], the 50% inhibitory concentration (IC50) was less than 100 nM.
For the molecule `O=C(CCc1ccc2c(n1)NCCC2)Nc1ccc(C[C@H](NC(=O)c2c(Cl)cccc2Cl)C(=O)O)cc1` [YT-119], the IC50 is less than 100 nM.
With `Cc1cccc(C)c1C(=O)N[C@@H](Cc1ccc(NC(=O)CCCNc2ccccn2)cc1)C(=O)O` [HIJ-890, (S)-2-(2,6-dimethylbenzamido)-3-(4-(4-(pyridin-2-ylamino)butanamido)phenyl)propanoic acid], the half-maximal inhibitory concentration (IC50) was less than 100 nM.
Turning to `Cc1cccc(Cl)c1C(=O)N[C@@H](Cc1ccc(NC(=O)CCCNc2ccccn2)cc1)C(=O)O` [HIJ-888, (S)-2-(2-chloro-6-methylbenzamido)-3-(4-(4-(pyridin-2-ylamino)butanamido)phenyl)propanoic acid], the IC50 lay within 100 to 10000 nM.
Take `N=C(N)NCCCC(=O)Nc1ccc(C[C@H](NC(=O)c2c(Cl)cccc2Cl)C(=O)O)cc1` [YT-107]: the IC50 was 100 to 10000 nM.
For `N=C(N)Nc1ccc2c(c1)C(=O)N(c1ccc(C[C@H](NC(=O)c3c(Cl)cccc3Cl)C(=O)O)cc1)CC2` [JM-175], the half-inhibitory concentration (IC50) was in the range of 100 to 10000 nM.
Turning to `N=C(N)NCCc1cn(-c2ccc(C[C@H](NC(=O)c3c(Cl)cccc3Cl)C(=O)O)cc2)nn1` [JM-39, (S)-2-(2,6-dichlorobenzamido)-3-(4-(4-(2-guanidinoethyl)-1H-1,2,3-triazol-1-yl)phenyl)propanoic acid], the half-maximal inhibitory concentration (IC50) was 100 to 10000 nM.
Take `O=C(CCCNc1ccccn1)Nc1ccc(C[C@H](NC(=O)c2c(Cl)cccc2Cl)C(=O)O)cc1` [YT-103, (S)-2-(2,6-dichlorobenzamido)-3-(4-(4-(pyridin-2-ylamino)butanamido)phenyl)propanoic acid]: the IC50 was less than 100 nM.
Turning to `O=C(CCCc1ccc2c(n1)NCCC2)Nc1ccc(C[C@H](NC(=O)c2c(Cl)cccc2Cl)C(=O)O)cc1` [YT-101], the IC50 lay in the range of 100 to 10000 nM.
For `N=C(N)NCCCc1csc(-c2ccc(C[C@H](NC(=O)c3c(Cl)cccc3Cl)C(=O)O)cc2)n1` [JM-192] the value was 100 to 10000 nM.
